Earlier results, collected in patent publication US20240173371A1, “RHODIOLA CRENULATA COMPOSITIONS AND METHODS OF MAKING THE SAME” (NutriScience Innovations LLC, priority 2022, published 2024).

How the values were obtained:
[1] = system: CD3+T cells and CD4+T helper cells; conditions: Wistar male rats, supplementation
[2] = rats, oral, 20 and 40 mg/kg over two weeks
[3] = rats, oral, 20 and 40 mg/kg over two weeks; remark: listed apart in the source

For OC[C@H]1O[C@@H](OCCc2ccc(O)cc2)[C@H](O)[C@@H](O)[C@@H]1O [salidroside], the “CD4+T helper cells” value [1] is given as “increased”, the “total CD3+T cells” value [1] is given as “increased” and the olfactory-bulbectomy-induced hyperactivity [2] is given as “alleviated”. For the same molecule, the “outcome of a forced swim test” value [3] was “improved”.
